Ki and EC50 data for 13 molecules are collected here from ChEMBL document CHEMBL1123992, “Benzo[1,2-c:5,4-c']dipyrazoles: non-xanthine adenosine antagonists” (J Med Chem, 1988).

A value given as a limit tells only on which side of the number the result lay.

In assay [1] the target is Adenosine A2 receptor (Homo sapiens, UniProt P29275+P29274). The assay is described as follows: In vitro binding affinity to Adenosine A2 receptor of human platelets by inhibition of NECA-stimulated adenylate cyclase. The format is functional.
Assay [2] deals with T1, Adenosine receptor A1 (Rattus norvegicus, UniProt P25099).
T1 sequence (P25099 whole entry): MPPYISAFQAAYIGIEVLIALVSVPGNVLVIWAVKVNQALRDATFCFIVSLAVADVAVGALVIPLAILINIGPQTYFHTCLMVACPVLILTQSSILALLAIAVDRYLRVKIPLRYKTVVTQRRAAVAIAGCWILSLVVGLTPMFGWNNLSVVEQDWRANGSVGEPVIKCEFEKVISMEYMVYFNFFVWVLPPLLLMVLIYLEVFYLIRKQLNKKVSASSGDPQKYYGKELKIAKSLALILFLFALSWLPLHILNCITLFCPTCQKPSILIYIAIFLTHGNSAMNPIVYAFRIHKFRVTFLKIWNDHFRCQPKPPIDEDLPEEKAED
The assay is described as follows: In vitro binding affinity to Adenosine A1 receptor of rat cerebral cortical membranes using 1 nM [3H]PIA.

For assay [3], the species on record is Cavia porcellus. The experiment in a line: Reversal of spasmogen-induced contraction of guinea pig cylindrical tracheal segments induced by 5-hydroxytryptamine (2x 10e-6 M). The format is functional. As to conditions: Trachea, read-out: ED50 (the source's name).
Assay [4] is filed under the species Cavia porcellus. The assay is described as follows: Reversal of spasmogen-induced contraction of guinea pig cylindrical tracheal segments induced by acetylcholine (1 x 10e -5 M). Format: functional. As to conditions: Trachea, read-out: ED50 (the source's name).
For assay [5], the species on record is Cavia porcellus. The assay is described as follows: Reversal of spasmogen-induced contraction of guinea pig cylindrical tracheal segments induced by histamine (1x […] -5 M). The format is functional. As to conditions: Trachea, read-out: ED50 (the source's name).
The species entered for assay [6] is Cavia porcellus. The assay is described as follows: Reversal of spasmogen-induced contraction of guinea pig cylindrical tracheal segments induced by Carbachol (7.4 x 10e -7 M). The format is functional. As to conditions: Trachea, read-out: ED50 (the source's name).
Assay [7] is filed under the species Cavia porcellus. The assay is described as follows: Reversal of spasmogen-induced contraction of guinea pig cylindrical tracheal segments induced by histamine (1 x 10e -5 M). The format is functional. As to conditions: Trachea, read-out: ED50 (the source's name).
For assay [8], the target named is Adenosine A2 receptor (Rattus norvegicus, UniProt P29276+P30543). The assay is described as follows: Inhibition of adenosine stimulated accumulation of cyclic AMP at Adenosine A2 receptor of VA13 fibroblasts of rat. Format: functional.
The target of assay [9] is Adenosine A2 receptor (Cavia porcellus). The assay is described as follows: Inhibition of 2-CADO-stimulated adenylate cyclase at Adenosine A2 receptor in guinea pig cerebral cortical slices.
The species entered for assay [10] is Cavia porcellus. The experiment in a line: Reversal of spasmogen-induced contraction of guinea pig cylindrical tracheal segments induced by acetylcholine (1*10e-5 M). As to conditions: Trachea, read-out: ED50 (the source's name). The format is functional.
For assay [11], the species on record is Cavia porcellus. The assay is described as follows: Reversal of spasmogen-induced contraction of guinea pig cylindrical tracheal segments induced by Carbachol (7.4x 10e-7 M). The format is functional. As to conditions: Trachea, read-out: ED50 (the source's name).
For assay [12], the target named is T1, Adenosine receptor A1. The assay is described as follows: Binding of 1 nM [3H]CHA to Adenosine A1 receptor of rat cerebral cortical membranes. The format is cell membranes, Membrane.

By Ki is commonly meant a dissociation constant, usually derived from enzyme kinetics or from competition with a known ligand. Read a high Ki as lower affinity. In the case of `Cc1n[nH]c2c([N+](=O)[O-])c3[nH]nc(C)c3cc12`, the figures for the Ki on Adenosine A2 receptor [1] and on Adenosine receptor A1 [2] were 14.4 µM and 1.9 µM, respectively. In addition, the EC50 is 1.5 µM in the assay filed under Cavia porcellus [3], 25 µM in the assay filed under Cavia porcellus [4] and 6.4 µM in the assay listed under Cavia porcellus [5].
Regarding `Cc1nn(C)c2c(C)c3c(cc12)c(C)nn3C`, the figures for the Ki at Adenosine A2 receptor [1] and at Adenosine receptor A1 [2] were 170 µM and 54 µM, respectively. In addition, the results for the EC50 in the assay listed under Cavia porcellus [3], in the assay filed under Cavia porcellus [6] and in the assay listed under Cavia porcellus [5] were 20 µM, 9.6 µM and 38 µM, respectively.
Take `Cc1n[nH]c2c(Br)c3[nH]nc(C)c3cc12`: the EC50 was 0.9 µM in the assay filed under Cavia porcellus [3], 2 µM in the assay listed under Cavia porcellus [4] and 3 µM in the assay listed under Cavia porcellus [7].
For the molecule `CCn1c(=O)c2nc[nH]c2n(CC)c1=O`, the figures for the Ki (on Adenosine A2 receptor [8]; in assay [9]) were 1.2 µM and 3 µM, respectively.
`Cc1n[nH]c2c(C)c3[nH]nc(C)c3cc12`: the Ki at Adenosine A2 receptor [1] stood at 4.8 µM; on Adenosine receptor A1 [2], 1.2 µM. Besides, the EC50 was 4.6 µM in the assay listed under Cavia porcellus [3], 8.5 µM in the assay filed under Cavia porcellus [4] and 24 µM in the assay listed under Cavia porcellus [5].
Regarding `Cc1n[nH]c2cc3[nH]nc(C)c3cc12`, the Ki is 25.6 µM at Adenosine A2 receptor [1] and 8 µM on Adenosine receptor A1 [2]. The EC50 came out at 2 µM in the assay listed under Cavia porcellus [3], 4 µM in the assay filed under Cavia porcellus [10] and 1.4 µM in the assay filed under Cavia porcellus [7].
As for `Cc1nn(C)c2cc3c(cc12)c(C)nn3C`, the results for the inhibition constant (Ki) on Adenosine A2 receptor [1] and at Adenosine receptor A1 [2] were 80 µM and greater than 100 µM, respectively. Also, the results for the EC50 in the assay listed under Cavia porcellus [3] and in the assay listed under Cavia porcellus [5] were 17 µM and 75 µM, respectively.
On to `CCn1nc(C)c2cc3c(C)nn(CC)c3cc21`, for which the Ki at Adenosine A2 receptor [1] was determined as 56 µM; on Adenosine receptor A1 [2], 27 µM. For the same molecule, the EC50 in the assay filed under Cavia porcellus [3] is 1.3 µM; in the assay filed under Cavia porcellus [6], 11 µM; in the assay filed under Cavia porcellus [5], 5.2 µM.
Turning to `CCCn1nc(C)c2cc3c(C)nn(CCC)c3cc21`, the Ki at Adenosine A2 receptor [1] was determined as 32 µM; at Adenosine receptor A1 [2], 10.5 µM. The results for the EC50 in the assay listed under Cavia porcellus [3], in the assay listed under Cavia porcellus [6] and in the assay listed under Cavia porcellus [5] were 13 µM, 69 µM and 41 µM, respectively.
On to `CCn1nc(C)c2cc3c(C)nn(CC)c3c(C)c21`, for which the figures for the Ki at Adenosine A2 receptor [1] and on Adenosine receptor A1 [2] were 53 µM and 20 µM, respectively. The EC50 in the assay listed under Cavia porcellus [11] amounted to 1 µM; in the assay listed under Cavia porcellus [4] it was 4.3 µM; in the assay listed under Cavia porcellus [5], 4.1 µM.
As to `Cn1c(=O)[nH]c2[nH]cnc2c1=O` [1-METHYLXANTHINE], the Ki was found to be 9 µM on Adenosine receptor A1 [12] and 6.6 µM on Adenosine A2 receptor [8].
Consider `Cn1c(=O)c2[nH]cnc2n(C)c1=O` [AMINOPHYLLINE], for which the EC50 came to 21 µM in the assay filed under Cavia porcellus [3], 57 µM in the assay filed under Cavia porcellus [4] and 42 µM in the assay listed under Cavia porcellus [5].
With `O=c1[nH]c(=O)c2nc[nH]c2[nH]1` [XANTHINE], the Ki at Adenosine A2 receptor [8] came to 130 µM.
